Experimental data taken from ChEMBL document CHEMBL4507268 (2021).

What was measured:
Details in all cases: Compound concentration 1.0 uM
[1] = molecular target: T1, Mitogen-activated protein kinase kinase kinase 5 (Homo sapiens) (UniProt Q99683)
T1 sequence (whole entry): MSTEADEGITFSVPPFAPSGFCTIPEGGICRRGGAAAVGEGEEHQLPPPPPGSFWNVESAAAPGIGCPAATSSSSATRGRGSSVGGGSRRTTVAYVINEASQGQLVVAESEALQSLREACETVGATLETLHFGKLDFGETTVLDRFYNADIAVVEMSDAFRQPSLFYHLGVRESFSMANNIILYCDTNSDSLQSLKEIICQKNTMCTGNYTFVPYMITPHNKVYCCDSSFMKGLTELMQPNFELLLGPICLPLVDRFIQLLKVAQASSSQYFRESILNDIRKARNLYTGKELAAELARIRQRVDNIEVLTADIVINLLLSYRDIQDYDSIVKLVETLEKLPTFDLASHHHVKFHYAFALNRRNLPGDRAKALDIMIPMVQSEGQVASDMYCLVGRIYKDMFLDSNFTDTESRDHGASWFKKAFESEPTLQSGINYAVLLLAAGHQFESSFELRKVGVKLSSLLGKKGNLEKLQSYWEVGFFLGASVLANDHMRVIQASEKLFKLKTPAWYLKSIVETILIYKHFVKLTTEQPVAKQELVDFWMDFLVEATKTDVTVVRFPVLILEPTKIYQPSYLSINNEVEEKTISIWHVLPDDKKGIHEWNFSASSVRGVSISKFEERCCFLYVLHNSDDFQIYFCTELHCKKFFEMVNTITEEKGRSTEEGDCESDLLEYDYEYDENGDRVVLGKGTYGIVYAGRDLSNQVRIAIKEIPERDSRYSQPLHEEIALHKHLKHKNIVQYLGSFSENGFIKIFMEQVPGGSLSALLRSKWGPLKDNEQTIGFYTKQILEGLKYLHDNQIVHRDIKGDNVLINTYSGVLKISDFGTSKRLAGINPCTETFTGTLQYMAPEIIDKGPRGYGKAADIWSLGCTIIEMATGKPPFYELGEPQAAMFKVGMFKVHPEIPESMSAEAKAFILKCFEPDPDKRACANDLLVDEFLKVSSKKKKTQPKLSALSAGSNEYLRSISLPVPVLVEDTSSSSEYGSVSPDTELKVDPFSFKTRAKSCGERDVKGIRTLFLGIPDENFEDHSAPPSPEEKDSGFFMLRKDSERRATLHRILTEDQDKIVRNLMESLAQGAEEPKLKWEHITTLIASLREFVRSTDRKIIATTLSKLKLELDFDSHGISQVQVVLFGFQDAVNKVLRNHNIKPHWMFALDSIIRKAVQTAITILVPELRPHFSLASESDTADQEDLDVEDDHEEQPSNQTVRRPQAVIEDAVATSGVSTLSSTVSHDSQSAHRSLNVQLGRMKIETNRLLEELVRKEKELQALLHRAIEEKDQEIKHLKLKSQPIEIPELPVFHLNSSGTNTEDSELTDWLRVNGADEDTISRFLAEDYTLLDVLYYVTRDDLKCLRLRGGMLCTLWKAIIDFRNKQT

[2] = molecular target: T2, Discoidin domain-containing receptor 2 (Homo sapiens) (UniProt Q16832)
T2 sequence (whole entry): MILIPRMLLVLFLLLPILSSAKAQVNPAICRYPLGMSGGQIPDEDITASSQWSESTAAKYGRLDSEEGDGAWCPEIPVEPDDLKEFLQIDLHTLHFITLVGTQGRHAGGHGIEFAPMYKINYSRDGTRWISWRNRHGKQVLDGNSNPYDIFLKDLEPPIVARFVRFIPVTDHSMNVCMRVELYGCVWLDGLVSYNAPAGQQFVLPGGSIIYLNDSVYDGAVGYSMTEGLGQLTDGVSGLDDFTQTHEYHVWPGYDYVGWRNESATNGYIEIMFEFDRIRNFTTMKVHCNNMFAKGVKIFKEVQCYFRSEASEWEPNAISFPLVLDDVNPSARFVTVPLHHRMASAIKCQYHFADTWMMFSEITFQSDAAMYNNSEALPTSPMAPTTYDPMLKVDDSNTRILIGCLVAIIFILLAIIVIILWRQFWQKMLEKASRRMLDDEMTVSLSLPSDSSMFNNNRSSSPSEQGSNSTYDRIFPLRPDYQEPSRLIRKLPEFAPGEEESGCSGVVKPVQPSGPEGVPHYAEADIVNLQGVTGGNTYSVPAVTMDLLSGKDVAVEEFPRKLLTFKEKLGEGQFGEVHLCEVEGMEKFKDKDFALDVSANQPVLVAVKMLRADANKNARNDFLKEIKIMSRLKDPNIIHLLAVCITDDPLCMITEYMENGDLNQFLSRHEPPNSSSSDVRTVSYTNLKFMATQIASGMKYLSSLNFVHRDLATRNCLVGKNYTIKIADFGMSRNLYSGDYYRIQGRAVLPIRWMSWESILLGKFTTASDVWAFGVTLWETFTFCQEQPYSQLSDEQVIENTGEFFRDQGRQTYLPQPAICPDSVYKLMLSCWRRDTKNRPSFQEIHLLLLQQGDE

[3] = molecular target: T3, Serine/threonine-protein kinase haspin (Homo sapiens) (UniProt Q8TF76)
T3 sequence (whole entry): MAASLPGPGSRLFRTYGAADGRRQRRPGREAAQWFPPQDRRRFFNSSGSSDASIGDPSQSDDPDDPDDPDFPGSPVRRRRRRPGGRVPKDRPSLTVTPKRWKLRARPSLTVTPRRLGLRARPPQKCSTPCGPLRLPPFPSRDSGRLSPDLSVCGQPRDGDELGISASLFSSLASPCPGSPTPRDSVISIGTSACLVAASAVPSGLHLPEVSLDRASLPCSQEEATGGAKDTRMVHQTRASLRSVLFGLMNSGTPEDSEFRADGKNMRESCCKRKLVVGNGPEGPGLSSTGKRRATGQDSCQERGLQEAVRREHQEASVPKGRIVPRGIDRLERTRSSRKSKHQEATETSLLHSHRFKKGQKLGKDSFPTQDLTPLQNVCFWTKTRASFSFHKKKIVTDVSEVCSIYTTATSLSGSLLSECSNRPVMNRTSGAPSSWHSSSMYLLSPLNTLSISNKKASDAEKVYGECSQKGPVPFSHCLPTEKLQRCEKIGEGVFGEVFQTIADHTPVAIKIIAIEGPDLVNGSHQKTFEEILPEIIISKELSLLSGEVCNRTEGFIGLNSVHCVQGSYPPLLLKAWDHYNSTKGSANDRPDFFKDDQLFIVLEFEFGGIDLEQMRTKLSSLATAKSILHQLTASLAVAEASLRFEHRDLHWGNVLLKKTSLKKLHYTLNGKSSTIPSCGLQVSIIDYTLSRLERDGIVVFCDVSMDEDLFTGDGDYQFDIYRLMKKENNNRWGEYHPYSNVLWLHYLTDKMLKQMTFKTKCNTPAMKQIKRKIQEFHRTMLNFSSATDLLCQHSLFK

Measured: % residual kinase activity

CN1CCN(c2cnc3c(C4CCN(C(=O)c5ccc(OC(F)(F)F)cc5N)CC4)ncnc3c2)CC1 [BAY-885]
inactive: [1] 99% | [2] 104% | [3] 105%
